Molecular target: T1, DDK (Dbf4-dependent Cdc7 kinase, Cdc7-Dbf4) (Saccharomyces cerevisiae, UniProt P06243)
T1 construct: full-length Cdc7-Dbf4, expressed in budding yeast, MBP tag cleaved with PreScission, lambda phosphatase treated; with DDK kinase regulatory subunit DBF4
Assay: inhibition of MCM2-7 phosphorylation by DDK (gel)
Assay type: biochemical
Settings: substrate MCM2-7

T1 sequence (P06243 whole entry): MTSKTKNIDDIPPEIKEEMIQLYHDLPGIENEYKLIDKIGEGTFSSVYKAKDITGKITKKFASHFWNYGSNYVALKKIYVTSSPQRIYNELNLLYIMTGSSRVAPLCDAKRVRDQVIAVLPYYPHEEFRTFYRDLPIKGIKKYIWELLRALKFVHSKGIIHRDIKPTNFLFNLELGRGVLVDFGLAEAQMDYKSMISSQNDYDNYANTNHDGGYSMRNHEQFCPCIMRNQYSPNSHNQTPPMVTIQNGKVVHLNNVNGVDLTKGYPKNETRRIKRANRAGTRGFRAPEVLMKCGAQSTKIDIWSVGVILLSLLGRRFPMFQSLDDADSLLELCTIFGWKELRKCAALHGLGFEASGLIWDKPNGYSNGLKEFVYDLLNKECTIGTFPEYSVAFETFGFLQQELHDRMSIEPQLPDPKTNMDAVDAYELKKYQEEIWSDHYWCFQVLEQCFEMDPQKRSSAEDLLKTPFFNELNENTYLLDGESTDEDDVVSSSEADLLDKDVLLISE
T1 sequence (P32325 whole entry partner): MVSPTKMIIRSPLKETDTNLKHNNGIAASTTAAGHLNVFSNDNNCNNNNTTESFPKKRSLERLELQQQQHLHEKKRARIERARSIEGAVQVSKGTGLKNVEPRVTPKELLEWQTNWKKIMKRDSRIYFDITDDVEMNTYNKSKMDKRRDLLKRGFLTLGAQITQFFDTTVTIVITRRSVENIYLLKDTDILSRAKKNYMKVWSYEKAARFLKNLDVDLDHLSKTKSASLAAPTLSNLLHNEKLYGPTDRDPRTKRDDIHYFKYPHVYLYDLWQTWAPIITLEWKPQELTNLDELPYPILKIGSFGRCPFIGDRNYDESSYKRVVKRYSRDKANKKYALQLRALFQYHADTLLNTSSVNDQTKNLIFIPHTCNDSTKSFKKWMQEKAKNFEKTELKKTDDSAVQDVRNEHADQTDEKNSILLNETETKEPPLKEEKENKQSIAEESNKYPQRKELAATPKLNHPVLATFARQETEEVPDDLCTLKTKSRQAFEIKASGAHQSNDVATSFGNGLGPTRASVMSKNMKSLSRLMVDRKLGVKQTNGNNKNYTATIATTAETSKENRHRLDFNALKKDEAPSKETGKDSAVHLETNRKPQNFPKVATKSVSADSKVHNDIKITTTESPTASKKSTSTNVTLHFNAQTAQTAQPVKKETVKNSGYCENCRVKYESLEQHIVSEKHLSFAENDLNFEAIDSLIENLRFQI

Row | Compound | inhibition
1 | O=C1NCCc2[nH]c(-c3ccncc3)cc21 [PHA767491] | DDK phosphorylation of MCM2-7 is inhibited by the human Cdc7 inhibitors: XL413, PHA767491 and TAK931
2 | Cc1[nH]ncc1-c1cc2nc([C@@H]3CC4CCN3CC4)[nH]c(=O)c2s1 [TAK931] | DDK phosphorylation of MCM2-7 is inhibited by the human Cdc7 inhibitors: XL413, PHA767491 and TAK931
3 | O=c1[nH]c([C@@H]2CCCN2)nc2c1oc1ccc(Cl)cc12 [XL413] | DDK phosphorylation of MCM2-7 is inhibited by the human Cdc7 inhibitors: XL413, PHA767491 and TAK931
